Here are results for two compounds from patent EP3167873A1, “AQUEOUS SOLUTION OF CONDENSATION PRODUCTS OF TAURINAMIDE AND METHYLENE GLYCOL FOR USE AS ANTI-INFECTIVE AGENT IN THE IMPLANTATION OF DEVICES IN CARDIAC SURGERY” (Weis, Christian Edwin, priority 2015, dated 2017).

Data set [1] deals with Infektionen. Nature of the data set: Clinical use in pacemaker/ICD implantation: device treated and pocket rinsed, infections observed after implantation. The format is in vivo, Patienten. An excerpt: Bei der Verwendung wird üblicherweise so vorgegangen, dass die implantierbare Vorrichtung vor der Implantation für die zur Erzielung der gewünschten optimalen antimikrobiellen Wirkung und zur vollständigen Benetzung aller Oberflächen der Vorrichtung erforderliche Zeit, gemäß einer bevorzugten Praxis etwa 20 Minuten, in die Lösung eingelegt wird und danach die implantierbare Vorrichtung, z.B. das Gehäuse eines Herzschrittmachers, mit einem Film der wässrigen Lösung auf ihrer Oberfläche in die vom operierenden Chirurgen vorbereitete Tasche implantiert wird.
Die Tasche wird anschließend mit der restlichen Lösung (ca. 100 ml) gespült.
In einer kardiologischen Station eines akademischen Lehrkrankenhauses, in der routinemäßig und in großer Zahl Patienten Herzschrittmacher implantiert werden, gehörte es zur Praxis, zur Infektionsvermeidung die zu implantierenden Herzschrittmachergehäuse während der Implantation mit einer Lösung von Wasserstoffperoxid zu behandeln, wobei gleichzeitig eine Wundspülung mit Wasserstoffperoxid stattfindet. Dabei kommt es zur Freisetzung von Sauerstoff und starkem Aufschäumen. Trotz der bakteriziden Eigenschaften von verdünntem Wasserstoffperoxid ist die Wirkung der Behandlung als Infektionsprophylaxe bei der Implantation von Geräten nicht verifiziert. […]

In data set [2] the test system is MRSA (Methicillin-resistenter Staphylococcus aureus). To be noted: cited from earlier work.
The test system of data set [3] is VRE (Vancomycin-resistente Enterokokken). The conditions noted are these: cited from earlier work.
The subject of a further data set is ESKAPE Pathogene. To be noted: cited from earlier work.
On the set-up of data set [4]: species or system Patienten. The conditions noted are these: in vivo. An excerpt:
Schrittmacherimplantationen unter erfindungsgemäßer Verwendung einer 2,0 Gew.-%igen wässrigen Taurolidinlösung sind in der nachfolgenden Tabelle 1 tabellarisch erfasst. Die Tabelle gibt dabei die Befunde für 45 Implantationen, einschließlich von 9 Fällen des Austauschs eines Aggregats gegen ein neues, wieder, die im Zeitraum zwischen Februar und September 2015 erfolgten, wobei in allen Fällen die angegebene 2,0 Gew.-%ige wässrige Taurolidinlösung wie beschrieben zur Anwendung kam.

In a further data set the test system is Bakterien. To be noted: contact of the solution with microorganisms / contaminated surfaces; cited from earlier work.
Another data set deals with Biofilme. To be noted: cited from earlier work.
Data set [5] deals with Infektionen. The conditions noted are these: irrigation (wound rinsing); cited from earlier work.

Turning to `O=S1(=O)CCN(CN2CCS(=O)(=O)NC2)CN1` [Taurolidin], the Infektion entry in the data set on Infektionen [1] (45 implantations of Tabelle 1 (February to September 2015), 2,0 Gew.-% aqueous Taurolidin solution, observed up to filing date) is reported as “bei keinem einzigen der Patienten eine Infektion beobachtet”. Besides, the Infektionen entry with Infektionen [1] (pacemaker laid about 20 min in 2,0 Gew.-% Taurolidin solution before implantation, pocket rinsed with rest (ca. 100 ml), comparable number of implantations) was “keinerlei Infektionen beobachtet”. In addition, the Wirksamkeit result (in data set [2]; in data set [3]; in the data set on ESKAPE Pathogene) was “voll wirksam” in each case. In data set [4], the Wundheilung result is “gute, ungestörte Wundheilung”. Moreover, in the data set on Bakterien, the “Kontaktdauer bis zur vollen antibakteriellen Wirkung” value is reported as at least 10 Minuten. The “Wirksamkeit gegen Biofilme” value in the data set with Biofilme is reported as “wirksam”.

In the case of Povidon-Iod, the “Verbesserung der Infektionsrate” value in the data set with Infektionen [5] is “keine nennenswerte Verbesserung beobachtet”.
